The source of these data is US6653287B1, “Use of leukemia inhibitory factor and endothelin antagonists” (Genentech, Inc., priority 1995, dated 2003).

Square brackets hold non-standard residues; d marks the D form. Peptide text beside a SMILES is read from it.

In test [1] the test system is neonatal rat cardiac ventricular myocytes. Description: Neonatal rat cardiac myocyte hypertrophy assay (crystal violet stain, microscopic hypertrophy score). The format is cell-based. The source says: A miniaturized assay is preferably used to assay the suspected antagonist(s) for hypertrophy-inhibiting activity. In this assay the medium used allows the cells to survive at a low plating density without serum. By plating directly into this medium, washing steps are eliminated so that fewer cells are removed. The plating density is important: many fewer cells and the survival is reduced; many more cells and the myocytes begin to self-induce hypertrophy.
The preferred hypertrophy assay comprises:
(a) pre-coating the wells of 96-well tissue culture plates with a medium containing calf serum, preferably D-MEM/F-12 medium containing 4% fetal calf serum, wherein preferably the wells are incubated with the medium for about eight hours at about 37°C.;
(c) plating a suspension of myocytes in the inner 60 wells at 7.5×10^4 cells per mL in D-MEM/F-12 medium supplemented with insulin, transferrin, and aprotinin;
(d) culturing the myocytes for at least 24 hours in the presence of LIF or endothelin;
(e) adding the test substance;
(f) culturing the cells with the test substance (preferably for about 24-72 hours, more preferably for about 48 hours); and
(g) evaluating hypertrophy, preferably after crystal violet stain, by microscopic examination.
(§1) Neonatal rat cardiac ventricular myocytes were cultured in 96-well plates 35 as described by Pennica et al., supra. Briefly, myocytes were isolated from one-day-old Sprague-Dawley rats by a series of collagenase digestions followed by Percoll™ gradient purification. Iwaki et al., J Biol Chem., 265: 13809-13817 (1990). The myocytes, which band at the lower gradient interface, were collected, washed twice, and re-suspended in D-MEM/F12 medium with 15% (vol/vol) fetal calf serum. The cells were diluted into serum-free D-MEM/F12 medium supplemented with 10 μg/mL transferrin, 1 μg/mL insulin, 1 μg/mL aprotinin, 2-mmol/L glutamine, 100 U/mL penicillin G, and 100 μg/mL streptomycin (assay medium) to a final density of 7.5×10^4 cells per mL. The final serum concentration of this assay medium with cells was <0.1%. Myocytes were plated 200 μL per well in 96-well, flat-bottomed plates that had previously been coated with D-MEM/F12 medium with 4% (vol/vol) fetal calf serum for 8 hours at 37° C. After 24 hours at 37° C. in 5% CO2, test substances were added. Forty-eight hours after the test substances were added, the cells were fixed and stained with 0.5% (wt/vol) crystal violet in methanol and formaldehyde, and the hypertrophy was scored on a scale of 1 to 7 by microscopic evaluation. Untreated cells were used as the negative control and scored as a 3. Toxic effects were scored from 0 to 2. The positive control in each assay was 100 μmol/L phenylephrine, which was scored as 7.

Test [2] has the same test system. As to the kind of experiment: Myocyte morphology and contractile fiber organization (phallacidin f-actin stain, confocal microscopy). The format is cell-based. The note with it: for organization of contractile fibers (f-actin): 48 hours exposure, fluorescent phallacidin stain. On the procedure: as §1
The myocytes were plated in 4-chamber Lab Tek™ glass chamber slides pre-coated for 8 hours with 4% (vol/vol) fetal calf serum in D-MEM/F12 medium and cultured for 24 hours. They were exposed to test substances for 48 hours and then washed 3× in phosphate buffered saline (PBS) and fixed in 95% (vol/vol) ethanol for 15 minutes. The slides were then washed 3×0 in PBS with 0.1% (vol/vol) Tween-20™ surfactant, blocked for 30 minutes with 1% (wt/vol) BSA in PBS with 0.1% Tween-20™ surfactant, and incubated with phallacidin conjugated to BODIPY FL™ brand reagent (10 μg/mL in 1% BSA in PBS) (Molecular Probes, Eugene Oreg.) for 40 minutes to stain the f-actin present in the contractile fibers. The slides were then washed 3× with PBS in 0.1% Tween-20™ surfactant. Images of the phallacidin-stained cells were acquired on a Ultima™ laser-scanning confocal microscope (Meridian Instruments, Okemos, Mich.). A 1.4 NA 60×™ oil-immersion objective was utilized coupled with 488-nm excitation, with the resulting fluorescence measured following a 525-nm long-pass filter. […] The final images were constructed with a maximum fluorescence projection algorithm by compressing the multiple z or depth images into a single two-dimensional representation.

For test [3] the test system is unchanged. The note with it: neonatal rat cardiac myocytes in culture; Pennica et al. 1995; cited from earlier work.

In the case of `CC(C)C[C@@H]1NC(=O)[C@@H](C(C)C)NC(=O)[C@@H]2CCCN2C(=O)[C@@H](CC(=O)O)NC(=O)[C@@H](Cc2c[nH]c3ccccc23)NC1=O` [BQ-123] (cyclo(L[dW][dD]P[dV])), the “inhibition of NCM hypertrophy activity” value in test [1] (FIG. 3, 100 μmol/L BQ-123, 50 μg/mL LIF Mab) is given as “partially inhibited”. For the same molecule, in test [1] (FIG. 4A/5A, BQ-123 1-100 μmol/L, LIF Mab 0.5-50 μg/mL), the “blocking of hypertrophy activity induced by endothelin-1” value is reported as “blocked”. Besides, in test [1] (FIG. 4B/5B, BQ-123 1-100 μmol/L, LIF Mab 0.5-50 μg/mL), the “blocking/neutralization of hypertrophy activity induced by mouse LIF” value was “not”. Besides, the “blocking of hypertrophy activity induced by phenylephrine” value in test [1] (FIG. 4C/5C, BQ-123 1-100 μmol/L, LIF Mab 0.5-50 μg/mL) is on record as “not”. The “blocking of hypertrophy activity induced by CT-1” value in test [1] (FIG. 4D/5D, BQ-123 1-100 μmol/L, LIF Mab 0.5-50 μg/mL) is reported as “not”. Also, the “effect on myocyte morphology by itself” value in test [1] (inhibitor alone, no inducer) is on record as “no effect”. Moreover, the “morphology of myocytes treated with NCM plus inhibitor” value in test [2] (NCM and BQ-123 or LIF Mab) is recorded as “resembled those treated with purified LIF”.

As to `CC[C@H](C)[C@H](NC(=O)[C@H](CC(=O)O)NC(=O)[C@H](CC(C)C)NC(=O)[C@H](Cc1c[nH]cn1)NC(=O)[C@@H]1CSSC[C@H](N)C(=O)N[C@@H](CO)C(=O)N[C@H]2CSSC[C@H](NC(=O)[C@H](CCC(=O)O)NC(=O)[C@H](CCCCN)NC(=O)[C@H](CC(=O)O)NC(=O)[C@H](CCSC)NC(=O)[C@H](CC(C)C)NC(=O)[C@H](CO)NC(=O)[C@H](CO)NC2=O)C(=O)N[C@@H](C(C)C)C(=O)N[C@@H](Cc2ccc(O)cc2)C(=O)N[C@@H](Cc2ccccc2)C(=O)N1)C(=O)N[C@H](C(=O)N[C@@H](Cc1c[nH]c2ccccc12)C(=O)O)[C@@H](C)CC` [endothelin-1], the “hypertrophic response (myocyte cell size and ANP production)” value in test [1] (purified factors, even at nanomolar concentrations) is on record as “partial hypertrophic responses”. In addition, the morphology of myocytes entry in test [2] (48-hour exposure to maximal concentrations) is on record as “more compact with no processes”. Further, the “organization of contractile fibers (f-actin)” value in test [2] is “not organized in parallel, had a tangled appearance, and did not show prominent banding”.

As for `CNC[C@H](O)c1cccc(O)c1` [phenylephrine], the “hypertrophy score (positive control)” value in test [1] (100 μmol/L phenylephrine, scale 1 to 7, untreated 3) stood at 7. The “organization of contractile fibers (f-actin)” value in test [2] was “organized in parallel arrays with prominent banding”.

B1: CT-1: cardiotrophin-1, member of the family of proteins that bind to GH/cytokine receptors (protein, UniProt Q16619 1-201, looked up)
Cardiotrophin-1: MSRREGSLEDPQTDSSVSLLPHLEAKIRQTHSLAHLLTKYAEQLLQEYVQLQGDPFGLPSFSPPRLPVAGLSAPAPSHAGLPVHERLRLDAAALAALPPLLDAVCRRQAELNPRAPRLLRRLEDAARQARALGAAVEALLAALGAANRGPRAEPPAATASAASATGVFPAKVLGLRVCGLYREWLSRTEGDLGQLLPGGSA
For the molecule B1, the “hypertrophy activity among proteins that bind GH/cytokine receptors” value in test [3] is given as “most potent hypertrophy activity”.
